What was measured:
adult rat DRG neurons = assay: Neurite outgrowth in dissociated adult rat dorsal root ganglion cultures; type: cell-based; details: 72h; BYL719 500 nM with 1938 above 10^-7 M
Description: Dissociated adult rat dorsal root ganglion (DRG) cultures were used as an in vitro model for neuroregeneration[80],[81]. DRG neurons were isolated from adult male (>250g) Wistar rats as described, with DRGs from each rat cultured separately. Following culling via schedule 1 (rising concentration of CO2), the spinal column was removed and stored in PBS on ice. Cord tissue was removed to expose the DRGs and roots in the intervertebral foramen and the DRGs removed with forceps and scalpel under a dissecting microscope (Olympus SZ40). DRGs were manually cleaned by removal of roots, capsule and capillaries with forceps and then placed in DMEM supplemented with P/S. DRGs were treated with 0.125% collagenase type IV solution at 37°C for 90 min, and then mechanically dissociated by trituration using a 1 ml pipette. The collagenase solution was removed by 2 rounds of centrifugation in complete DMEM (DMEM with 1% P/S and 10% FBS) at 400 xg for 5 min, followed by resuspension of the DRG cell pellet in complete DMEM supplemented with 0.01 mM cytosine arabinoside. DRGs were plated in 75-cm[2] flasks coated with 0.1 mg/ml poly-D-lysine and incubated at 37°C, 5% CO2. […] 9 fields per well were captured and analysed using the CSIRO Neurite Analysis 2 […] in Columbus analysis software (Perkin Elmer). […]

PI3Kα-WT A549 cells = assay: TIRF microscopy of PIP3 reporter, PI3Kα-WT A549; type: cell-based, human; details: 1938, then BYL719 0.5 μM
Experimental: Phosphoinositide reporters used were GFP-PH-ARNO^I303Ex2 (PIP3 reporter[41]) and mCherry-cPH-TAPP1x3 (PI(3,4)P2 reporter[41]). TIRF microscopy allows selective imaging of the small cell volume, including the plasma membrane, directly adjacent to the coverslip onto which cells have been seeded. HeLa or A549 cells were seeded in Matrigel-coated (Corning #354230; diluted in Opti-MEM at 1:50) 8-well chamber slides (glass bottom, 1.55 refractive index; Thermo Fisher Scientific #155409) at a density of 5,000 cells/well. […]
Image analyses of total reporter intensities were performed with the Fiji open source image analysis package. The region of interest (ROI) corresponding to the footprint of the individual cell across time points were defined using minimal intensity projection to select only pixels present across all time points, following prior subtraction of camera noise (rolling ball method, radius = 500 pixels) and xy drift correction, intensity levels over time were measured. […] All other quantifications were performed using the open source software R/RStudio. The values plotted in Fig. 3d (iii) represent mean±SEM, following signal scaling to minimum and maximum values of the normalised fluorescence intensity for each time point (Fn(t)). […]

Compound: Cc1nc(NC(=O)N2CCC[C@H]2C(N)=O)sc1-c1ccnc(C(C)(C)C(F)(F)F)c1 [BYL719, reference compound]
- neurite outgrowth (total length of neurites) (adult rat DRG neurons): partially reduced the increase in neurite outgrowth
- plasma membrane PIP3 (biosensor) (PI3Kα-WT A549 cells): fully and acutely neutralized

Source: article PMC7614683, “A small molecule PI3Kα activator for cardioprotection and neuroregeneration” (Nature, 2023)
